In brackets after ≈: the same amount, converted by molar mass. Read-outs that look alike come from different tables or passages of the source.
Columns and labels:
Botrtyis cinerea (Bc) = assay: Growth inhibition assay of fungal pathogens, Bc; assay type: cell-based; details: 48 h
In short: (§1)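 Spore suspension in 17% V8 liquid media; cpd final 50/10/2 or 2/0.4/0.08 ppm, 2% DMSO. OD600 + visual, 24 & 48 h; % inhibition at 48 h vs 2% DMSO ctrl.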

[1] = tested on: Phytophthora capsici (Pc); assay: Growth inhibition assay of fungal pathogens, Pc; assay type: cell-based; details: 48 h
In short: as §1

fungal (fACC2) = fungal (fACC2) (UniProt Q00955); details: read-out: fACC2 (in vitro ACC2 Inhibition Assay, IC50), ADP-Glo, 5 nM ACC2, 20 μM ATP, 20 μM acetyl-CoA
Sequence of fungal (fACC2) (Q00955 whole entry): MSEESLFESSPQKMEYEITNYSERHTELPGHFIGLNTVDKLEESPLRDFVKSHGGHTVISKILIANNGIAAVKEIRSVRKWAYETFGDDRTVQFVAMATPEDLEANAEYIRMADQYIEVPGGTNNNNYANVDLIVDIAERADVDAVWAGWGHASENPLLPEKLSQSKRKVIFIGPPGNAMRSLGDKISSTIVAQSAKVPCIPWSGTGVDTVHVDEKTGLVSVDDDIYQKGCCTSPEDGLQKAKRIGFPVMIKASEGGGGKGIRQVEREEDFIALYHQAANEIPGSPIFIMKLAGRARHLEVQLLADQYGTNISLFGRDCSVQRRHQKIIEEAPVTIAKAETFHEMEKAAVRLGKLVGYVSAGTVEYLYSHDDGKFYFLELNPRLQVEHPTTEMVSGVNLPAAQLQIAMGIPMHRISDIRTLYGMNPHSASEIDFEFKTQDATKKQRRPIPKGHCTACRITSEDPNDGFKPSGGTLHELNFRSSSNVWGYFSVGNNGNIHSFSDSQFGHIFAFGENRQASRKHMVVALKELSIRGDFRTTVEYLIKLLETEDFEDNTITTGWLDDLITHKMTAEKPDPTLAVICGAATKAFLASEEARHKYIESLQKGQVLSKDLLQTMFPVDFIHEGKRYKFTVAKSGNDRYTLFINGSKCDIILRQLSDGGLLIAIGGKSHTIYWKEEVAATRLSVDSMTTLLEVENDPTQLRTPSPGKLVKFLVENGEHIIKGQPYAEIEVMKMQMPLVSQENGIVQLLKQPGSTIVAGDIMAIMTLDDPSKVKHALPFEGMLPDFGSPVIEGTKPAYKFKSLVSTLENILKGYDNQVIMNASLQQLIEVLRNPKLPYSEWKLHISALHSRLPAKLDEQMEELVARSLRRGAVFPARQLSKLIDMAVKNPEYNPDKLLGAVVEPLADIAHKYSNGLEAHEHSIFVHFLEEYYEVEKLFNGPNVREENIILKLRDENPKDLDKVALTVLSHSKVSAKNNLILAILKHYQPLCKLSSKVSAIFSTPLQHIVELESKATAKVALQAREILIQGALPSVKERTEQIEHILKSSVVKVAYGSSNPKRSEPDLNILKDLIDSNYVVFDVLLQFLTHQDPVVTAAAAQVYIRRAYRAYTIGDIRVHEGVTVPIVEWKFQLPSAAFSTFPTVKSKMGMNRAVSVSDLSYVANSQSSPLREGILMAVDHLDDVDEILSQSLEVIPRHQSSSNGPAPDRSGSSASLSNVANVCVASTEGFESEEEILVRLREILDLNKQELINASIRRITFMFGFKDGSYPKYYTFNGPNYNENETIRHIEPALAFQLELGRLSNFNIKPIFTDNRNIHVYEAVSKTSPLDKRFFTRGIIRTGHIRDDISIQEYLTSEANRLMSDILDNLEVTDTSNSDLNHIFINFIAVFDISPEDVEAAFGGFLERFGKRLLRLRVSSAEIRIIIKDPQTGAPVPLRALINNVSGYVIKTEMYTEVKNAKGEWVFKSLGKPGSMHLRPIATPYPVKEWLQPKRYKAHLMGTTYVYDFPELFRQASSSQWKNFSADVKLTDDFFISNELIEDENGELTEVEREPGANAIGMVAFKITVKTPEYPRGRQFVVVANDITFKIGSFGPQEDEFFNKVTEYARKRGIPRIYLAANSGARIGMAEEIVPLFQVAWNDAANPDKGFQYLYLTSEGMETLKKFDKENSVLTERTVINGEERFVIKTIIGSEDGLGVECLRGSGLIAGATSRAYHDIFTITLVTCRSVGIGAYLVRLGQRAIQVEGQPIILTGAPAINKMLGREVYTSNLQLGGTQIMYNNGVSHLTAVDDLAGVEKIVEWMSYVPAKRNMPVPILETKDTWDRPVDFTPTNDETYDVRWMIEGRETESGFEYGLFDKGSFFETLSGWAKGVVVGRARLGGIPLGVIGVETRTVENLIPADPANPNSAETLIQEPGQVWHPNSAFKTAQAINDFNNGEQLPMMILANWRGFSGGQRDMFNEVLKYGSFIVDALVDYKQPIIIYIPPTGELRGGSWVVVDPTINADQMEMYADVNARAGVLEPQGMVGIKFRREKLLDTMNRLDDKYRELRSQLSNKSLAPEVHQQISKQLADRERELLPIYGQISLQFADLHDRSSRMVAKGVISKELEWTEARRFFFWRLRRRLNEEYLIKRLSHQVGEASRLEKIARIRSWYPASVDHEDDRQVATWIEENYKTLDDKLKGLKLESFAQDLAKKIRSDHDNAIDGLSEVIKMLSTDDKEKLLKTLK

[2] = tested on: Collectotrichum graminicola (Cg); assay: Growth inhibition assay of fungal pathogens, Cg; assay type: cell-based; details: 48 h
In short: as §1

C. parapsilosis = assay: Antifungal Activity Assay (broth microtiter MIC), C. parapsilosis; assay type: cell-based, Candida parapsilosis; details: Lodderomyces parapsilosis, ATCC22019, 48 h
In short: (§2)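 Susceptibility was determined by CLSI M27-A3 broth microdilution in RPMI 1640 buffered with MOPS. Growth inhibition was scored visually after 48 h.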

Rhizoctonia solani (Rs) = assay: Growth inhibition assay of fungal pathogens, Rs; assay type: cell-based; details: 48 h
C. albicans = assay: Antifungal Activity Assay (broth microtiter MIC), C. albicans; assay type: cell-based, Candida albicans; details: Candida albicans, ATCC90028, 48 h
In short: as §2

Diplodia maydis (Dm) = assay: Growth inhibition assay of fungal pathogens, Dm; assay type: cell-based; details: Stenocarpella maydis, 48 h
In short: as §1

Septoria tritici (St) = assay: Growth inhibition assay of fungal pathogens, St; assay type: cell-based; details: Zymoseptoria tritici, 48 h
In short: as §1

human (hACC2) = human (hACC2) (Homo sapiens, UniProt O00763); assay: In vitro ACC inhibition assay (ADP-Glo), hACC2; assay type: biochemical; details: 5 nM ACC2, 20 μM ATP, 20 μM acetyl-CoA
Sequence of human (hACC2) (O00763 whole entry): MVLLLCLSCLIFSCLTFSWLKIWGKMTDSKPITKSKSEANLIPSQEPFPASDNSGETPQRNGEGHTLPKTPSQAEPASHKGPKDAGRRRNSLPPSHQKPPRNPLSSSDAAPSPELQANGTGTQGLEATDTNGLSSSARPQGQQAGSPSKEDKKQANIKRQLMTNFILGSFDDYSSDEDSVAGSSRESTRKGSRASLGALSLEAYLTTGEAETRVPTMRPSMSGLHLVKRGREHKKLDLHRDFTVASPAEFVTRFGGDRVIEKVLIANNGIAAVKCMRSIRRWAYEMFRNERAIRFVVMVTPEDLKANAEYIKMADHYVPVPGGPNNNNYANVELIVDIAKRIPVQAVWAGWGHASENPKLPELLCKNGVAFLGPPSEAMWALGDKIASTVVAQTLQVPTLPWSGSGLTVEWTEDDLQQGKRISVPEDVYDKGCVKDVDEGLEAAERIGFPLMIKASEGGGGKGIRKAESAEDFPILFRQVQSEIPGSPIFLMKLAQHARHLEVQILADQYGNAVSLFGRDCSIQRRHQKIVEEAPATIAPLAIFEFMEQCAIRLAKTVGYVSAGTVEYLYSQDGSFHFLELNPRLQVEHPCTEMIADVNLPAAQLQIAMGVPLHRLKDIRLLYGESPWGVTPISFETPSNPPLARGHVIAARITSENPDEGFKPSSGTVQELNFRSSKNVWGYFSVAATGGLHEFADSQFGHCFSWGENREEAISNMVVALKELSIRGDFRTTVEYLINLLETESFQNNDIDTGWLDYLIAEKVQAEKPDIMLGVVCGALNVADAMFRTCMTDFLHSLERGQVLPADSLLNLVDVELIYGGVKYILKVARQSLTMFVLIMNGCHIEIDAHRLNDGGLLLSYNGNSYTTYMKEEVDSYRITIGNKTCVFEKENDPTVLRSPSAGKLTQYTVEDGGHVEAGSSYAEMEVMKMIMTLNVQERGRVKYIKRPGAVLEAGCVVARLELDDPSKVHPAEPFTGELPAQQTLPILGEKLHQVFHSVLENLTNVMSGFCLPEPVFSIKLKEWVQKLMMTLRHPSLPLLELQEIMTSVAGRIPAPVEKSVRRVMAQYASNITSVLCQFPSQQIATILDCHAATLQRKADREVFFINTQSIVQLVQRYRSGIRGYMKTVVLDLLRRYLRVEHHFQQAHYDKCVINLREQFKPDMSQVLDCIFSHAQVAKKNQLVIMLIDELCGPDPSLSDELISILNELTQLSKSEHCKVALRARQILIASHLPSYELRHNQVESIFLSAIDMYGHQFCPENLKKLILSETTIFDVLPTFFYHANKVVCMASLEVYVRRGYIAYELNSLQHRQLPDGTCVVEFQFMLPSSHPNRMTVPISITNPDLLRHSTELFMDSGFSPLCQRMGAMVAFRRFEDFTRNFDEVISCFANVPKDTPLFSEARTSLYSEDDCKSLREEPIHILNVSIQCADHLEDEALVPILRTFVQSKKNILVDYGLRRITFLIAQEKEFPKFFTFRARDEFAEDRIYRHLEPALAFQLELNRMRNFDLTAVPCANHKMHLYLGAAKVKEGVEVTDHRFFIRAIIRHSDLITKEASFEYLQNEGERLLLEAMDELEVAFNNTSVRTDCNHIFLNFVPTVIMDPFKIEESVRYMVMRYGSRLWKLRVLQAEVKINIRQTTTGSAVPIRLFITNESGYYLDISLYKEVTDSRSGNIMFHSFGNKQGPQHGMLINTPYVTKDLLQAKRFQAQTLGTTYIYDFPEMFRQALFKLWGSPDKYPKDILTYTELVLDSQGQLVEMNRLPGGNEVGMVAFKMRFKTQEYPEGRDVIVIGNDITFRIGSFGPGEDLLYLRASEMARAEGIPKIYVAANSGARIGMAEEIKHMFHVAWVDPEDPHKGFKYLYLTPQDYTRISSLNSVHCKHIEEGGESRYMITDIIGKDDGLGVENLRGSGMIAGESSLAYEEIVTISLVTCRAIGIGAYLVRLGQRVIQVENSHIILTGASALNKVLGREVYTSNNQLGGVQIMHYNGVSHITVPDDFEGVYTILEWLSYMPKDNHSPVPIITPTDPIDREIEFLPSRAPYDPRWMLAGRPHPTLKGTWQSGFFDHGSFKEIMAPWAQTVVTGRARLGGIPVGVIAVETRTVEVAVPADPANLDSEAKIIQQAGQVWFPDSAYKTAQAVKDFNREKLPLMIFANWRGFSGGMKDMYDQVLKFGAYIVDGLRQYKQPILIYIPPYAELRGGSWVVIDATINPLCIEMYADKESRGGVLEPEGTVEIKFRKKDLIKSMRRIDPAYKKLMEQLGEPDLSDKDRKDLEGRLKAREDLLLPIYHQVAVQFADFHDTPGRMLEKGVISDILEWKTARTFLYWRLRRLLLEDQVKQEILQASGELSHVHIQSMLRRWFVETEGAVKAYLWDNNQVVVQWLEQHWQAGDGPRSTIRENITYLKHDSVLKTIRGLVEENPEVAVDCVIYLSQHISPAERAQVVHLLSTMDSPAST
Protocol: The detailed procedure is as follows. […] 10 μL ADP glo reagent was added. […] 20 μL kinase detection reagent was added.

[3] = Botrtyis cinerea, growth inhibition at 48 hours vs 2% DMSO control, read-out: Concentration at 90% Inhibition Bc
[4] = Botrtyis cinerea, growth inhibition vs 2% DMSO control at 48 hours, read-out: Concentration at 90% Inhibition Bc
[5] = growth inhibition at 48 hours vs 2% DMSO control, read-out: Concentration at 90% Inhibition Pc
[6] = growth inhibition vs 2% DMSO control at 48 hours, read-out: Concentration at 90% Inhibition Pc
[7] = Collectotrichum graminicola, growth inhibition at 48 hours vs 2% DMSO control, read-out: Concentration at 90% Inhibition Cg
[8] = Collectotrichum graminicola, growth inhibition vs 2% DMSO control at 48 hours, read-out: Concentration at 90% Inhibition Cg
[9] = Table 3a, ATCC 22019, 3 replicates, MIC recorded at 48 h, read-out: MIC, C. parapsilosis ATCC 22019
[10] = Table 3b (additional results), ATCC 22019, 3 replicates, MIC recorded at 48 h, read-out: MIC, C. parapsilosis ATCC 22019
[11] = mycelial plugs, growth inhibition at 48 hours vs 2% DMSO control, read-out: Concentration at 90% Inhibition Rs
[12] = mycelial plugs, growth inhibition vs 2% DMSO control at 48 hours, read-out: Concentration at 90% Inhibition Rs
[13] = Table 3a, ATCC 90028, 3 replicates, MIC recorded at 48 h, read-out: MIC, C. albicans ATCC 90028
[14] = Table 3b (additional results), ATCC 90028, 3 replicates, MIC recorded at 48 h, read-out: MIC, C. albicans ATCC 90028
[15] = Diplodia maydis, growth inhibition at 48 hours vs 2% DMSO control, read-out: Concentration at 90% Inhibition Dm
[16] = Diplodia maydis, growth inhibition vs 2% DMSO control at 48 hours, read-out: Concentration at 90% Inhibition Dm
[17] = Septoria tritici, growth inhibition at 48 hours vs 2% DMSO control, read-out: Concentration at 90% Inhibition St
[18] = Septoria tritici, growth inhibition vs 2% DMSO control at 48 hours, read-out: Concentration at 90% Inhibition St
[19] = read-out: Concentration at 90% Inhibition Bc, Botrtyis cinerea, growth inhibition at 48 hours vs 2% DMSO control
[20] = read-out: Concentration at 90% Inhibition Bc, Botrtyis cinerea, growth inhibition vs 2% DMSO control at 48 hours
[21] = read-out: Concentration at 90% Inhibition Pc, Phytophthora capsici, growth inhibition at 48 hours vs 2% DMSO control
[22] = read-out: Concentration at 90% Inhibition Pc, Phytophthora capsici, growth inhibition vs 2% DMSO control at 48 hours
[23] = read-out: Concentration at 90% Inhibition Cg, Collectotrichum graminicola, growth inhibition at 48 hours vs 2% DMSO control
[24] = read-out: Concentration at 90% Inhibition Cg, Collectotrichum graminicola, growth inhibition vs 2% DMSO control at 48 hours
[25] = read-out: MIC, C. parapsilosis ATCC 22019, Table 3a, 3 replicates, MIC recorded at 48 h
[26] = read-out: MIC, C. parapsilosis ATCC 22019, Table 3b (additional results), 3 replicates, MIC recorded at 48 h
[27] = read-out: Concentration at 90% Inhibition Rs, Rhizoctonia solani, mycelial plugs, growth inhibition at 48 hours vs 2% DMSO control
[28] = read-out: Concentration at 90% Inhibition Rs, Rhizoctonia solani, mycelial plugs, growth inhibition vs 2% DMSO control at 48 hours
[29] = read-out: MIC, C. albicans ATCC 90028, Table 3a, 3 replicates, MIC recorded at 48 h
[30] = read-out: MIC, C. albicans ATCC 90028, Table 3b (additional results), 3 replicates, MIC recorded at 48 h
[31] = read-out: Concentration at 90% Inhibition Dm, Diplodia maydis, growth inhibition at 48 hours vs 2% DMSO control
[32] = read-out: Concentration at 90% Inhibition Dm, Diplodia maydis, growth inhibition vs 2% DMSO control at 48 hours
[33] = read-out: Concentration at 90% Inhibition St, Septoria tritici, growth inhibition at 48 hours vs 2% DMSO control
[34] = read-out: Concentration at 90% Inhibition St, Septoria tritici, growth inhibition vs 2% DMSO control at 48 hours

Structure (SMILES) | IC90 (Botrtyis cinerea (Bc); [3]) [mg/L] | IC90 (Botrtyis cinerea (Bc); [4]) [mg/L] | IC90 [1, 5] [mg/L] | IC90 [1, 6] [mg/L] | IC50 (fungal (fACC2); Table 2a) [nM] | IC50 (fungal (fACC2); Table 2b, additional results) [nM] | IC90 [2, 7] [mg/L] | IC90 [2, 8] [mg/L] | MIC (C. parapsilosis; [9]) [mg/L] | MIC (C. parapsilosis; [10]) [mg/L] | IC90 (Rhizoctonia solani (Rs); [11]) [mg/L] | IC90 (Rhizoctonia solani (Rs); [12]) [mg/L] | MIC (C. albicans; [13]) [mg/L] | MIC (C. albicans; [14]) [mg/L] | IC90 (Diplodia maydis (Dm); [15]) [mg/L] | IC90 (Diplodia maydis (Dm); [16]) [mg/L] | IC90 (Septoria tritici (St); [17]) [mg/L] | IC90 (Septoria tritici (St); [18]) [mg/L] | IC50 (human (hACC2); Table 2a) [nM] | IC50 (human (hACC2); Table 2b, additional results) [nM] | further results
COCCO[C@@H](Cn1c(=O)n(CC(=O)N2CCCC2)c(=O)c2c(C)c(-n3nccn3)sc21)c1cc(F)ccc1OC [Compound I-79, (R)-1-(2-(5-fluoro-2-methoxyphenyl)-2-(2-methoxy-ethoxy)ethyl)-5-methyl-3-(2-oxo-2-(pyrrolidin-1-yl)ethyl)-6-(2H-1,2,3-tria-zol-2-yl)thieno[2,3-d]pyrimidine-2,4(1H,3H)-dione] | 2 (≈ 3.41 µM) | 2 (≈ 3.41 µM) | > 50 | > 50 | 1 to 5 | 1 to 5 | 2 (≈ 3.41 µM) | 10 (≈ 17 µM) | 2.1 to 4 (≈ 3.58 to 6.82 µM) | 2.01 to 4 (≈ 3.43 to 6.82 µM) | 10 (≈ 17 µM) | > 50 | 2.1 to 4 (≈ 3.58 to 6.82 µM) | > 4.01 | 2 (≈ 3.41 µM) | 2 (≈ 3.41 µM) | > 50 | > 50 | 10 to 40 | 10 to 40 | 
COCCO[C@@H](Cn1c(=O)n(CC(=O)NC(C)C)c(=O)c2c(C)c(-n3nccn3)sc21)c1cc(F)ccc1OC [Compound I-80, (R)-2-(1-(2-(5-fluoro-2-methoxyphenyl)-2-(2-methoxy-ethoxy)ethyl)-5-methyl-2,4-dioxo-6-(2H-1,2,3-triazol-2-yl)-1,4-dihydro-thieno[2,3-d]pyrimidin-3(2H)-yl)-N-isopropylacetamide] |  |  |  |  | 1 to 5 | 1 to 5 |  |  |  |  |  |  |  |  |  |  |  |  | > 40 | > 40 | IC90 (Botrtyis cinerea (Bc); [19]): > 50 mg/L; IC90 (Botrtyis cinerea (Bc); [20]): > 50 mg/L; IC90 [1, 21]: > 50 mg/L; IC90 [1, 22]: > 50 mg/L; IC90 [2, 23]: > 50 mg/L; IC90 [2, 24]: > 50 mg/L; MIC (C. parapsilosis; [25]): 2.1 to 4 mg/L (≈ 3.65 to 6.96 µM); MIC (C. parapsilosis; [26]): 2.01 to 4 mg/L (≈ 3.5 to 6.96 µM); IC90 (Rhizoctonia solani (Rs); [27]): 10 mg/L (≈ 17.4 µM); IC90 (Rhizoctonia solani (Rs); [28]): > 50 mg/L; MIC (C. albicans; [29]): 2.1 to 4 mg/L (≈ 3.65 to 6.96 µM); MIC (C. albicans; [30]): > 4.01 mg/L; IC90 (Diplodia maydis (Dm); [31]): > 50 mg/L; IC90 (Diplodia maydis (Dm); [32]): > 50 mg/L; IC90 (Septoria tritici (St); [33]): > 50 mg/L; IC90 (Septoria tritici (St); [34]): > 50 mg/L
COc1ccc(F)cc1[C@H](Cn1c(=O)n(CC(=O)N2CCCC2)c(=O)c2c(C)c(-n3nccn3)sc21)OCCO [Compound I-81, (R)-1-(2-(5-fluoro-2-methoxyphenyl)-2-(2-hydroxy-ethoxy)ethyl)-5-methyl-3-(2-oxo-2-(pyrrolidin-1-yl)ethyl)-6-(2H-1,2,3-triazol-2-yl)thieno[2,3-d]pyrimidine-2,4(1H,3H)-dione] | 0.08 (≈ 0.14 µM) | 0.08 (≈ 0.14 µM) | > 50 | > 50 | 1 to 5 | 1 to 5 | 2 (≈ 3.49 µM) | 2 (≈ 3.49 µM) | 2.1 to 4 (≈ 3.67 to 6.99 µM) | 2.01 to 4 (≈ 3.51 to 6.99 µM) | 0.08 (≈ 0.14 µM) | 0.08 (≈ 0.14 µM) | 2.1 to 4 (≈ 3.67 to 6.99 µM) | 2.01 to 4 (≈ 3.51 to 6.99 µM) | 2 (≈ 3.49 µM) | 2 (≈ 3.49 µM) | > 50 | > 50 | 5 to 10 | 5 to 10 | 
COc1ccc(F)cc1[C@H](Cn1c(=O)n(CC(=O)NC(C)C)c(=O)c2c(C)c(-n3nccn3)sc21)OCCO [Compound I-82, (R)-2-(1-(2-(5-fluoro-2-methoxyphenyl)-2-(2-hydroxy-ethoxy)ethyl)-5-methyl-2,4-dioxo-6-(2H-1,2,3-triazol-2-yl)-1,4-dihydro-thieno[2,3-d]pyrimidin-3(2H)-yl)-N-isopropylacetamide] |  |  |  |  | 1 to 5 | 1 to 5 |  |  |  |  |  |  |  |  |  |  |  |  | 1 to 5 | 1 to 5 | IC90 (Botrtyis cinerea (Bc); [19]): 2 mg/L (≈ 3.57 µM); IC90 (Botrtyis cinerea (Bc); [20]): 2 mg/L (≈ 3.57 µM); IC90 [1, 21]: > 50 mg/L; IC90 [1, 22]: > 50 mg/L; IC90 [2, 23]: 2 mg/L (≈ 3.57 µM); IC90 [2, 24]: 2 mg/L (≈ 3.57 µM); MIC (C. parapsilosis; [25]): 2.1 to 4 mg/L (≈ 3.75 to 7.14 µM); MIC (C. parapsilosis; [26]): 2.01 to 4 mg/L (≈ 3.59 to 7.14 µM); IC90 (Rhizoctonia solani (Rs); [27]): 2 mg/L (≈ 3.57 µM); IC90 (Rhizoctonia solani (Rs); [28]): 2 mg/L (≈ 3.57 µM); MIC (C. albicans; [29]): 2.1 to 4 mg/L (≈ 3.75 to 7.14 µM); MIC (C. albicans; [30]): 2.01 to 4 mg/L (≈ 3.59 to 7.14 µM); IC90 (Diplodia maydis (Dm); [31]): > 50 mg/L; IC90 (Diplodia maydis (Dm); [32]): > 50 mg/L; IC90 (Septoria tritici (St); [33]): > 50 mg/L; IC90 (Septoria tritici (St); [34]): > 50 mg/L

From patent US10800791B2, “Triazole ACC inhibitors and uses thereof” (Gilead Apollo, LLC, priority 2015, dated 2020)
